The record followed here is US20080071005A1, “Environment-Friendly Pollution-Proof Agent” (priority 2004, published 2008).

Series [1] concerns spores of Enteromorpha prolifera and Ulva pertusa. The experiment in a line: prevention of the attachment of fouling algae (summary).
In series [2] the test system is mice. Put plainly: safety test, 10 mg/kg to mice, 7 days observation. In kind it is in vivo. To be noted: 10 mg/kg in DMSO/water, 10 mice per group, observed for 7 days.
Series [3] can be described thus: safety test, oral and transdermal toxicity in rabbits. Particulars: rabbit, in vivo.
The subject of series [4] is Enteromorpha spores. Put plainly: inhibitory activity test against the mobility of Enteromorpha spores. To be noted: Brassica extracts and fractions, comparison within the set. In kind it is cell-based. From the text: In order to investigate inhibitory substances against the mobility of Enteromorpha spores from extracts of Citrus sp., organic solvent fractions were made.
In order to investigate inhibitory substances against the mobility of Enteromorpha spores from extracts of brassica, organic solvent fractions were made.

Series [5] relates to Aspergillus niger. Put plainly: minimum inhibitory concentration, two-fold serial dilution in nutrient broth. In kind it is cell-based. To be noted: 30° C., 48 hours. From the text: (§1) A liquid medium obtained by diluting PAGS by two-fold serial dilution was placed on a 96-multiwell plate and inoculated with 10^4 cfu/ml of microorganisms. […] The liquid medium used in the test was a nutrient broth (Difco).

Series [6] deals with Staphylococcus aureus. The series is described as above. In kind it is cell-based. To be noted: 30° C., 48 hours.
Source text: as §1

Like-named read-outs stand apart in the source and are kept apart here.

With `CC(C)=CCC/C(C)=C/C=O`, the antifouling activity result in series [1] is listed as “excellent antifouling activity”.

Consider `CCCCCCCCO` (single isomer, unassigned) [1-octanol], for which the antifouling activity result in series [1] is “excellent antifouling activity”. Moreover, the “death of the mice” value in series [2] is on record as “no death”.

Consider `C=CCN=C=S` (single isomer, unassigned) [allyl isothiocyanate], for which the antifouling activity entry in series [1] was “excellent antifouling activity”. Further, the “death of the mice” value in series [2] is listed as “no death”.

With `CCCCCCCCCCCCCCCCCCCC(=O)O` [arachadic acid], in series [1], the antifouling activity entry is reported as “excellent antifouling activity”. For the same compound, the “death of the mice” value in series [2] is “no death”.

Take `C=CC(=C)CCC=C(C)C` [beta-myrcene]: the antifouling activity result in series [1] was “excellent antifouling activity”. Moreover, in series [2], the “death of the mice” value is on record as “no death”.

On to `CC/C=C\CCOC(C)=O` [cis-3-hexenyl acetate], for which the 50% lethal dose (LD50) – broadly, the dose expected to kill half of the subjects tested – in series [3] (oral, read-out: LD50 (oral)) is above 5000 mg/kg; in series [3] (topical or ocular, transdermal, read-out: LD50 (transdermal)), above 5000 mg/kg. Further, the “solubility in organic solvent” value (organic solvent) is recorded as “insoluble in organic solvent”. In addition, the solubility in water result (water) is “insoluble in water”. Further, the antifouling activity entry in series [1] is “excellent antifouling activity”. The “inhibitory activity against the mobility of Enteromorpha spores, in words” value in series [4] is reported as “most excellent inhibitory effect”.

With `CCCCCCC(=O)OCC` [ethyl heptanoate], the antifouling activity entry in series [1] was “excellent antifouling activity”. Also, the “death of the mice” value in series [2] is on record as “no death”.

For `C=CCc1ccc(O)c(OC)c1` [eugenol], in series [1], the antifouling activity result is “excellent antifouling activity”. In series [2], the “death of the mice” value was “no death”.

Turning to methyl caporate, the antifouling activity result in series [1] is listed as “excellent antifouling activity”. The “death of the mice” value in series [2] is “no death”. Further, the “MIC Aspergillus niger 1:0” value in series [5] (ratio 1:0) is on record as 10. For the same compound, the “MIC Aspergillus niger 3:1” value in series [5] (ratio 3:1) is reported as 6. For the same compound, the “MIC Staphylococcus aureus 1:0” value in series [6] (ratio 1:0) was found to be 4. In addition, the “MIC Staphylococcus aureus 3:1” value in series [6] (ratio 3:1) is reported as 5.
